{"source": "ChEMBL document CHEMBL1201862", "about": "“PubChem BioAssay data set” (2004)", "key": {"cells [1]": {"test": "cells", "assay_type": "functional, cell-based"}, "[2]": {"test": "control 3'UTR Renilla luciferase suppression, dose response, counter-screen for Shn3 inhibitor project, cell-based, Clone20-Shn3RL, cherry-picked (AID 624133)", "assay_type": "functional"}, "HEK293": {"system": "HEK293", "test": "inhibitors of LMP1-driven NF-kB reporter, dose response, cell-based, HEK293, luciferase, cherry-pick (AID 588343)", "assay_type": "functional", "conditions": "Homo sapiens"}, "INS1": {"system": "INS1", "test": "beta cell apoptosis inhibitors, cytokine rescue, dose response, luminescence, retest (AID 449756);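 note: cell death triggered by IL-1 beta plus TNF-alpha plus IFN-gamma mixture; protective hits raise ATP signal compared with cytokine alone wells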", "assay_type": "functional, cell-based", "conditions": "Rattus norvegicus"}, "[3]": {"test": "Shn3 3'UTR reporter inhibitors, dose response, cell-based, Clone20 osteoblasts, firefly luciferase, cherry-picked (AID 624132)", "assay_type": "functional"}, "[4]": {"test": "Counterscreen for AddAB inhibitors: absorbance-based bacterial cell-based high throughput dose response assay for inhibitors of bacterial viability. [Related pubchem assays (depositor defined):AID435030, AID449728, AID449731, AID488942, AID488955, AID488956]", "assay_type": "functional"}, "[5]": {"test": "cytotoxicity toward NIH3T3 fibroblasts, dose response, counter-screen, cell-based, ATP luminescence, mouse fibroblasts (AID 2010);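 note: cells exposed to compound for about 90 hours before reading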", "assay_type": "functional"}, "[6]": {"biological_target": "Heat shock protein HSP 90-alpha (Homo sapiens, UniProt P07900)", "assay_type": "functional, organism-based"}, "[7]": {"test": "inhibitors of intracellular T. cruzi replication, confirmation, NIH3T3 host cells, beta-gal luminescence (AID 2044);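 note: luminescent beta-galactosidase reporter signal from transgenic T. cruzi replicating inside host cells; inhibitors lower the luminescence signal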", "assay_type": "functional, cell-based"}, "cells [8]": {"test": "cells", "assay_type": "functional, cell-based", "remark": "listed apart in the source"}, "[9]": {"test": "NIH-3T3 fibroblast cytotoxicity, dose response, cytotoxicity control, cell-based, fluorescence, Alamar Blue, secondary assay (AID 2327);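 note: NIH-3T3 mouse fibroblasts cultured with fluconazole at 8 µg/mL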", "assay_type": "functional"}, "[10]": {"test": "C. albicans growth with fluconazole, confirmation, fluorescence, retest (AID 2467)", "assay_type": "functional, cell-based"}, "[11]": {"test": "HepG2 cell cytotoxicity, dose response, cytotoxicity control for Shn3 inhibitor project, CellTiter-Glo, cherry-picked (AID 624134)", "assay_type": "functional, cell-based"}, "Exodeoxyribonuclease V": {"biological_target": "T1, Exodeoxyribonuclease V (Escherichia coli (strain K12), UniProt P04993+P07648+P08394)", "T1 sequence (P04993 whole entry)": "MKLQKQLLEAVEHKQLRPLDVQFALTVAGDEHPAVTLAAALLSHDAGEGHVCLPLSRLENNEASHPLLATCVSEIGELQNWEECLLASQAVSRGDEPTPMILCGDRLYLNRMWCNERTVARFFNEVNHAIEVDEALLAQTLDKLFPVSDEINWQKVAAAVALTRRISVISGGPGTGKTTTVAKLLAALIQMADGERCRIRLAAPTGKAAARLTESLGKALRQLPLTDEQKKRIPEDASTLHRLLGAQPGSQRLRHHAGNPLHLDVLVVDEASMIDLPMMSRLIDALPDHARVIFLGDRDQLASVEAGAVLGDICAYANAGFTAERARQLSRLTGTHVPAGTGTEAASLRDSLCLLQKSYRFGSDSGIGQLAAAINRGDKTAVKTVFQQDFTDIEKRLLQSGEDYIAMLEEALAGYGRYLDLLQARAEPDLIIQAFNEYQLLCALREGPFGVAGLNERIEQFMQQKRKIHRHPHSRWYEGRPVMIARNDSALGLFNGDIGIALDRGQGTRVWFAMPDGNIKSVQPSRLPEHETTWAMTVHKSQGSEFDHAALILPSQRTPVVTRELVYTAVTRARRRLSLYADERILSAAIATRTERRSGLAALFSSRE", "T1 sequence (P07648 whole entry)": "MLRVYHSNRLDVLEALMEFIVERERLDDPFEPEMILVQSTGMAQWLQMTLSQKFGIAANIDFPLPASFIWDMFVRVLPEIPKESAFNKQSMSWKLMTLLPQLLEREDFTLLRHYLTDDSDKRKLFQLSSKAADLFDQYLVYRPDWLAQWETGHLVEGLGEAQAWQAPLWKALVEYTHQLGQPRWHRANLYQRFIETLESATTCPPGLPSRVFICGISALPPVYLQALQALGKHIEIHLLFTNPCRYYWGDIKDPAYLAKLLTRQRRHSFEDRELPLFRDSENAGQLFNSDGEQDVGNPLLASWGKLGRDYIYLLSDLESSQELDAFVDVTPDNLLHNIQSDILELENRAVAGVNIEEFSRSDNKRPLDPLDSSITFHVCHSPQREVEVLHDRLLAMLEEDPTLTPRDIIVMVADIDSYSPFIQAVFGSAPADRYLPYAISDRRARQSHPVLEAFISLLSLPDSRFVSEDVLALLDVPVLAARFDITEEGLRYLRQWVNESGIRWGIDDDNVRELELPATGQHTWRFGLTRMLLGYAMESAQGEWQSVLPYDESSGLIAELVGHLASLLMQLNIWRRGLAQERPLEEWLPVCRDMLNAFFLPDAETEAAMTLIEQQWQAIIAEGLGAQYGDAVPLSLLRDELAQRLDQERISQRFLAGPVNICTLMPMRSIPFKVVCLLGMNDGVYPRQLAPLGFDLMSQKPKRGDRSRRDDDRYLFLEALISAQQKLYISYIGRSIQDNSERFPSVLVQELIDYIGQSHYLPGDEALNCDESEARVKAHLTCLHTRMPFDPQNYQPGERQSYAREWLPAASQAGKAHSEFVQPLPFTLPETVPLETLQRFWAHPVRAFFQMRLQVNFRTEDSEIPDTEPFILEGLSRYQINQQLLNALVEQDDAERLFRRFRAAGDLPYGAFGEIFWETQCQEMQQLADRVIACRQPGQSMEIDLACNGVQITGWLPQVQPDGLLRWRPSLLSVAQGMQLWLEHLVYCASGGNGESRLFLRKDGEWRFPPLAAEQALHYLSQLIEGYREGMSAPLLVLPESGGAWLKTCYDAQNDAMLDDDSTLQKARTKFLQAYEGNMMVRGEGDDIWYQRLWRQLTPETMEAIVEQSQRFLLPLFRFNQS", "T1 sequence (P08394 whole entry)": "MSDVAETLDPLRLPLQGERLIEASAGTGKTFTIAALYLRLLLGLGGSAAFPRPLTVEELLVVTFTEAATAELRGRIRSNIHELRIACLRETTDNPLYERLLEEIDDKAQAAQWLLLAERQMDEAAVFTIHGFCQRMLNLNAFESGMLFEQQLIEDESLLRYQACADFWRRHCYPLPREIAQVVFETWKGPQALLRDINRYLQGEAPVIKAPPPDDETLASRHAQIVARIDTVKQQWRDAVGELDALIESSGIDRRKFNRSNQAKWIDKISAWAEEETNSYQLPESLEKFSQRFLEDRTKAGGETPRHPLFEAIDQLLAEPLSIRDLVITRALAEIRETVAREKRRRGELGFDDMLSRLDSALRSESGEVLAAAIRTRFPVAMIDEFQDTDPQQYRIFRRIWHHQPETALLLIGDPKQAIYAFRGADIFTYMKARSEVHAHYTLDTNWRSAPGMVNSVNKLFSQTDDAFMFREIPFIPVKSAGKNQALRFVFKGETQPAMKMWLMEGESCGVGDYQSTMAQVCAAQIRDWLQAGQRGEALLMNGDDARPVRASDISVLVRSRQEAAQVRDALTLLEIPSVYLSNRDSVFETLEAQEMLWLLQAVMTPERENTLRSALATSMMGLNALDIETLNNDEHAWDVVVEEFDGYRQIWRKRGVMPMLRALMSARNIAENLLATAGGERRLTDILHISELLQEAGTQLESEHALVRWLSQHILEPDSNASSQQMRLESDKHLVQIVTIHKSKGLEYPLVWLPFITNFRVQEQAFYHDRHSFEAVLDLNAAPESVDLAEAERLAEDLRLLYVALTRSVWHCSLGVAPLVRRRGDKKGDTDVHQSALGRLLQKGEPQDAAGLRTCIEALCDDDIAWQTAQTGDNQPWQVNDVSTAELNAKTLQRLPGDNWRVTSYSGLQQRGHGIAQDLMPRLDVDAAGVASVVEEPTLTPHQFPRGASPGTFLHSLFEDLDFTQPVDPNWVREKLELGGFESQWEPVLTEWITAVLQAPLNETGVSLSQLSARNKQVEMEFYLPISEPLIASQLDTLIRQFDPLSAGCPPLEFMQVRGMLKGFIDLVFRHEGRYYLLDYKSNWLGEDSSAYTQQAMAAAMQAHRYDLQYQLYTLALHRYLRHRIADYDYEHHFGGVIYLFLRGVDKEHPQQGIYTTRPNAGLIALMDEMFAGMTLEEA", "test": "E. coli RecBCD inhibitors, dose response, counter-screen for AddAB inhibitor project, absorbance, V66 E. coli, mutant T4 phage (AID 492957)", "assay_type": "functional, cell-based, Escherichia coli str. K-12 substr. MG1655"}, "Vero": {"system": "Vero", "test": "cells", "assay_type": "functional", "conditions": "Chlorocebus sabaeus"}, "CAAX prenyl protease 1": {"biological_target": "T2, CAAX prenyl protease 1 (Saccharomyces cerevisiae S288c, UniProt P47154)", "T2 sequence (P47154 whole entry)": "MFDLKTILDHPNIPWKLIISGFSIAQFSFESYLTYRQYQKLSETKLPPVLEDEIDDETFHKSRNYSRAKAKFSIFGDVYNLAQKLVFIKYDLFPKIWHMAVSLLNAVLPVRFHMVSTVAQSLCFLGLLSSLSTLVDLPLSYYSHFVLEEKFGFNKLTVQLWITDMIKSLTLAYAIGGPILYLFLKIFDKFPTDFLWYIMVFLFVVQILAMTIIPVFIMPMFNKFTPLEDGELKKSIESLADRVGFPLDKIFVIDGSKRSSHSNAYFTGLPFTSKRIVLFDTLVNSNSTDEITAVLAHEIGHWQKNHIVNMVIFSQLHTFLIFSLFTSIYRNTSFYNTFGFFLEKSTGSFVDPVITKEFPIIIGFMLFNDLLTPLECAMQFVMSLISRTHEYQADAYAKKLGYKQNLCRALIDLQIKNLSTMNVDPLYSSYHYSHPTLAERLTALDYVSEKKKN", "test": "Ste24 protease inhibitors, dose response, biochemical, S. cerevisiae, plate reader, cherry-pick (AID 488815)"}, "[12]": {"test": "HEp-2 cell cytotoxicity, dose response, cytotoxicity control for RSV inhibitor project, HTS (AID 2410)", "assay_type": "functional", "conditions": "human respiratory syncytial virus"}, "Trypsin": {"biological_target": "Trypsin (Sus scrofa, UniProt P00761)", "sequence (P00761 whole entry)": "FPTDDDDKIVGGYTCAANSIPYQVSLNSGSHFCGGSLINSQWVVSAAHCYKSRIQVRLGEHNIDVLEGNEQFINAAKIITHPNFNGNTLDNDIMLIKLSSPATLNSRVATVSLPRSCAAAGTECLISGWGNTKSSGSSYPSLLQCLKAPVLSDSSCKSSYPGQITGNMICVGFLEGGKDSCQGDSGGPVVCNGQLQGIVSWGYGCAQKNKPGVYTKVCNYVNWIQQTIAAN", "test": "porcine trypsin inhibitors, dose response, selectivity assay for Rce1 protease inhibitor project, biochemical, quenched peptide fluorescence, cherry-pick (AID 488789)"}, "[13]": {"biological_target": "SWI/SNF-related matrix-associated actin-dependent regulator of chromatin subfamily A member 2 (Homo sapiens, UniProt P51531)", "sequence (P51531 whole entry)": "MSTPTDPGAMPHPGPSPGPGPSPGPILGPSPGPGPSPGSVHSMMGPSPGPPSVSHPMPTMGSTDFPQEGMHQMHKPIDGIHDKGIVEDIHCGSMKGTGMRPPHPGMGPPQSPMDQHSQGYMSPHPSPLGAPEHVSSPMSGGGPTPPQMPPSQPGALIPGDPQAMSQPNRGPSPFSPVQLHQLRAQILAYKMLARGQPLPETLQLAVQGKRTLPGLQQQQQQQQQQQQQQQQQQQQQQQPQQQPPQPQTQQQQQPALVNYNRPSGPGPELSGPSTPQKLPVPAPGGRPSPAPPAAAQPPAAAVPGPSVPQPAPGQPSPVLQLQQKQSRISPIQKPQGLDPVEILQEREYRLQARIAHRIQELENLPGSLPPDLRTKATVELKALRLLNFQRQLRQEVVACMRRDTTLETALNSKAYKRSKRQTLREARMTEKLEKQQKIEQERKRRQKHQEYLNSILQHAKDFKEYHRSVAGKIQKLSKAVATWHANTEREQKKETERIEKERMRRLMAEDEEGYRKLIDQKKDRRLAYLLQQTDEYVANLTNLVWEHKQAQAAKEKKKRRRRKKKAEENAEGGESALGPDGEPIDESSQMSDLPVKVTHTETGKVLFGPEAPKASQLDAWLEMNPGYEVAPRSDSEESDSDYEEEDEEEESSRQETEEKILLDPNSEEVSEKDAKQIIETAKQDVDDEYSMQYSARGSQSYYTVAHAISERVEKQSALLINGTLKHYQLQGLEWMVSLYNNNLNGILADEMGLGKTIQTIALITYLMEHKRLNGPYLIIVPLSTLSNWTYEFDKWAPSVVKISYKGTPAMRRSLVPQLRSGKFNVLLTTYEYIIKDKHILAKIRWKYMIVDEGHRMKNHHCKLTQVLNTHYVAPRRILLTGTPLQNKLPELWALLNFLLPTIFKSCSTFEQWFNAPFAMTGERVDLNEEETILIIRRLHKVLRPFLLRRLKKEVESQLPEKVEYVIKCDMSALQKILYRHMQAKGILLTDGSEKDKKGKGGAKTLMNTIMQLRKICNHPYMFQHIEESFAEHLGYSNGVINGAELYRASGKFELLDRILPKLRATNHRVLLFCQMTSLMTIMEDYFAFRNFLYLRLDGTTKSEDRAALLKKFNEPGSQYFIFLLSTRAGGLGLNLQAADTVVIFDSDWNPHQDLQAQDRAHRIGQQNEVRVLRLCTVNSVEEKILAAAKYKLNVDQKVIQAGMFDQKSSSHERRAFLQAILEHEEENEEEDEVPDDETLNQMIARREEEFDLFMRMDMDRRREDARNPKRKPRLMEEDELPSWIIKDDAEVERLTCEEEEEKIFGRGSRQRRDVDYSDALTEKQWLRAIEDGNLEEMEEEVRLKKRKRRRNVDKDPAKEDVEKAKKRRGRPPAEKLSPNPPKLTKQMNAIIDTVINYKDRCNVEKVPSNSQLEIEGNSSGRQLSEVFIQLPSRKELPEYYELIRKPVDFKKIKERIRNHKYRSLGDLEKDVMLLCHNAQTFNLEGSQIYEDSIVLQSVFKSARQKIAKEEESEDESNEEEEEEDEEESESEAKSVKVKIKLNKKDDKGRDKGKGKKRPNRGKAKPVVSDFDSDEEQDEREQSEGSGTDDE", "test": "Luminescence-based cell-based high throughput dose response assay to identify activators of the function of SWI/SNF related, matrix associated, actin dependent regulator of chromatin, subfamily a, member 2 (SMARCA2, BRM).", "assay_type": "functional"}, "CAAX prenyl protease 2": {"biological_target": "T3, CAAX prenyl protease 2 (Homo sapiens, UniProt Q9Y256)", "T3 sequence (Q9Y256 whole entry)": "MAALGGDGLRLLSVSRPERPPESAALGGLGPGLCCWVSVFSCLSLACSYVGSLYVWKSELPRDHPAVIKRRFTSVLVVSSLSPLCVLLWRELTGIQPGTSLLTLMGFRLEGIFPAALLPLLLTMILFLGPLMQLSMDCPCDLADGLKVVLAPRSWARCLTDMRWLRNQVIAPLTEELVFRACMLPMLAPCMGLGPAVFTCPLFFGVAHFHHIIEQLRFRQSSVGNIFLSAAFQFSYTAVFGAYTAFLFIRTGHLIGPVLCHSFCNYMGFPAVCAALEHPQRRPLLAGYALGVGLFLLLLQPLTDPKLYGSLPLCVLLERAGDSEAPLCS", "test": "human Rce1 protease inhibitors, dose response, biochemical, yeast membranes, quenched-peptide fluorescence, cherry-pick (AID 588849)"}, "[14]": {"test": "Counterscreen for activators of the function of SWI/SNF related, matrix associated, actin dependent regulator of chromatin, subfamily a, member 2 (SMARCA2, BRM): Luminescence-based cell-based high throughput dose response assay to identify non-selective compounds using the VP16 reporter assay.", "assay_type": "functional"}}, "note": "Calls of active or inactive are those of the source.", "data": [{"smiles": "CCC(=O)NC(c1ccc(Cl)cc1Cl)c1ccc2cccnc2c1O", "note": "(stereo unspecified)", "values": [{"measurement": "EC50", "setting": "cells [1]", "result": "> 350 µM (not active)"}, {"measurement": "AC50", "setting": "[2]", "result": "1.33 µM (active)"}, {"measurement": "AC50", "setting": "HEK293", "result": "4.55 µM (active)"}, {"measurement": "AC50", "setting": "INS1", "result": "0.478 µM (active)"}, {"measurement": "AC50", "setting": "[3]", "result": "1.19 µM (active)"}, {"measurement": "IC50", "setting": "[4]", "result": "> 119 µM (inactive)"}, {"measurement": "EC50", "setting": "[5]", "result": "0.434 µM (active)"}, {"measurement": "AC50", "setting": "[6]", "result": "3.22 µM (active)"}, {"measurement": "EC50", "setting": "[7]", "result": "0.296 µM (active)"}, {"measurement": "EC50", "setting": "cells [8]", "result": "7.3 µM (active)"}, {"measurement": "EC50", "setting": "[9]", "result": "3.86 µM (inconclusive)"}, {"measurement": "EC50", "setting": "[10]", "result": "0.354 µM (active)"}, {"measurement": "AC50", "setting": "[11]", "result": "28.8 µM (active)"}, {"measurement": "IC50", "setting": "Exodeoxyribonuclease V", "result": "> 119 µM (inactive)"}]}, {"smiles": "NS(=O)(=O)c1ccc(N/N=C/c2cn(-c3ccccc3)nc2-c2cccs2)cc1", "values": [{"measurement": "CC50", "setting": "Vero", "result": "11.3 µM (active)"}, {"measurement": "AC50", "setting": "CAAX prenyl protease 1", "result": "7.44 µM (active)"}, {"measurement": "CC50", "setting": "[12]", "result": "12.2 µM (active)"}, {"measurement": "AC50", "setting": "Trypsin", "result": "7.03 µM (active)"}, {"measurement": "EC50", "setting": "[13]", "result": "> 91.2 µM (inactive)"}, {"measurement": "AC50", "setting": "CAAX prenyl protease 2", "result": "16.7 µM (active)"}, {"measurement": "EC50", "setting": "[14]", "result": "> 91.2 µM (inactive)"}]}]}
